In this data set the test system is human PKK mRNA. Kind of data set: Antisense inhibition of human PKK mRNA in HepaRG cells, 5,000 nM (Example 2). The data set is classed as cell-based. The method in brief: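 qRT-PCR (RTS3454) read-out, RIBOGREEN-normalized; % inhibition vs untreated cells. HepaRG, 20,000 cells/well, electroporation, 5,000 nM ASO, ~24 h.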
Setting [1] is: HepaRG cells, electroporation, 5,000 nM antisense oligonucleotide, approx. 24 hours, primer probe set RTS3454, relative to untreated control cells, Table 11.
Where [2] appears, read: HepaRG cells, electroporation with 5,000 nM antisense oligonucleotide, approximately 24 hours, PKK mRNA by RT-PCR (RTS3454), relative to untreated control cells, Table 5 experiment.
Setting [3] is: Table 13, human PKK mRNA in HepaRG cells, 5-10-5 gapmers.
Where [4] appears, read: Table 7, HepaRG cells, electroporation with 5,000 nM antisense oligonucleotide, approx. 24 hours, PKK mRNA by RT-PCR (RTS3454), relative to untreated control cells.
The mark [5] stands for this setting: HepaRG cells, electroporation, 5,000 nM antisense oligonucleotide, approx. 24 hours, primer probe set RTS3454, relative to untreated control cells, Table 12.
Setting [6] is: human PKK mRNA, HepaRG cells, 5-10-5 motif oligonucleotides targeting SEQ ID NO: 1 and 10.
[7] abbreviates: Table 9 experiment, HepaRG cells, 20,000 cells per well, electroporation with 5,000 nM antisense oligonucleotide, approx. 24 hours, PKK mRNA by RT-PCR (RTS3454), relative to untreated control cells.
The mark [8] stands for this setting: Table 10 experiment, HepaRG cells, 20,000 cells per well, electroporation with 5,000 nM antisense oligonucleotide, approx. 24 hours, PKK mRNA by RT-PCR (RTS3454), relative to untreated control cells.
Where [9] appears, read: human PKK mRNA in HepaRG cells, 5-10-5 gapmers, Table 14.
Where [10] appears, read: HepaRG cells, 5,000 nM antisense oligonucleotide, 5-10-5 gapmers, Table 16.

As usually defined, the % inhibition is the share of the control response that was lost under treatment.

Strand notation (5' to 3'): a small letter for the sugar, then the base; units joined by * are phosphorothioate-linked, units joined directly phosphodiester-linked; [ ] holds rarer units or linkages, { } end groups; capitals alone tell only the bases. e = 2'-O-(2-methoxyethyl) (MOE); [5mC] = 5-methylcytosine; d = 2'-deoxy (DNA)

Take “547509 (antisense e[5mC]*e[5mC]*e[5mC]*e[5mC]*e[5mC]*d[5mC]*dA*dG*dG*d[5mC]*dT*d[5mC]*dA*dG*dA*eA*eT*eT*eT*eG) [compound 547509]”: the “% inhibition” value under setting [1] was determined as 58%.

Turning to “547343 (antisense e[5mC]*eA*e[5mC]*eA*eT*dT*dA*dA*dA*dA*dT*dT*dG*dA*d[5mC]*eT*e[5mC]*e[5mC]*eT*e[5mC]) [compound 547343]”, the “% inhibition” value (HepaRG cells, electroporation with 5,000 nM antisense oligonucleotide, approximately 24 hours, PKK mRNA by RT-PCR (RTS3454), relative to untreated control cells, Table 6 experiment) is on record as 78%.

As to “546155 (e[5mC]*e[5mC]*eT*e[5mC]*eA*dT*d[5mC]*dT*dG*dG*d[5mC]*dA*dG*dT*dA*eT*eT*eG*eG*eG; antisense) [compound 546155]”, the “% inhibition” value under setting [2] is given as 47%.

On to “546836 (eA*eT*eA*eA*e[5mC]*dT*d[5mC]*dT*dA*dA*d[5mC]*dA*dG*dT*dA*eT*e[5mC]*eA*e[5mC]*eT; antisense) [compound 546836]”, for which the “% inhibition” value under setting [3] came to 30%.

Regarding “546822 (eA*e[5mC]*eT*eA*eG*dT*dT*dT*d[5mC]*d[5mC]*dT*dA*dT*dA*dA*e[5mC]*eT*eG*e[5mC]*eT; antisense) [compound 546822]”, the “% inhibition” value under setting [3] is given as 32%.

Consider “547385 (eT*eG*eT*eG*e[5mC]*d[5mC]*dA*d[5mC]*dT*dT*dT*d[5mC]*dA*dG*dA*eT*eG*eT*eT*eT; antisense) [compound 547385]”, for which, under setting [4], the “% inhibition” value is recorded as 80%.

On to “548715 (DNA eA*eT*e[5mC]*dA*d[5mC]*dT*dG*dT*dA*d[5mC]*dT*dA*dG*eT*eT*eT; antisense) [compound 548715]”, for which, where the note is “HepaRG cells, 5,000 nM antisense oligonucleotide, human PKK mRNA, Table 18”, the “% inhibition” value is recorded as 0%.

In the case of “546496 (eA*eT*eG*e[5mC]*eA*dT*dA*d[5mC]*dT*d[5mC]*dG*d[5mC]*d[5mC]*dT*dT*eT*eG*eT*eG*eA; antisense) [compound 546496]”, the “% inhibition” value under setting [5] worked out at 54%.

In the case of “547675 (antisense eT*eG*eT*e[5mC]*e[5mC]*dT*dA*dT*dA*dA*d[5mC]*dT*dA*dT*dA*eA*e[5mC]*eA*eA*eT) [compound 547675]”, the “% inhibition” value under setting [6] was found to be 10%.

Turning to “546307 (antisense eT*eA*eT*eA*eG*dT*dT*dT*dT*dG*dG*dT*dG*dA*dA*eT*eA*eA*eT*eA) [compound 546307]”, the “% inhibition” value is, setting by setting: under setting [7], 12%; under setting [8], 0%.

Consider “547598 (antisense eA*e[5mC]*eT*eA*eT*dA*dA*d[5mC]*dA*dA*dT*dA*dT*d[5mC]*dA*e[5mC]*eT*eG*eT*e[5mC]) [compound 547598]”, for which the “% inhibition” value under setting [9] is on record as 59%.

As to “546171 (antisense e[5mC]*eT*eA*eT*e[5mC]*dT*dT*dT*d[5mC]*dA*dA*dG*dA*dA*dG*e[5mC]*eA*eA*e[5mC]*e[5mC]) [compound 546171]”, the “% inhibition” value under setting [2] is 81%.

Turning to “547285 (antisense eA*e[5mC]*eT*eG*eT*dA*dG*d[5mC]*dA*dA*dA*d[5mC]*dA*dA*dG*eG*eA*eA*eA*eT) [compound 547285]”, under setting [2], the “% inhibition” value was 51%.

With “546163 (eA*e[5mC]*eT*eT*eG*d[5mC]*dT*dG*dG*dA*dA*dG*dA*dA*dA*eA*e[5mC]*eT*eG*eA; antisense) [compound 546163]”, the “% inhibition” value under setting [2] came out at 42%.

As for “546138 (eA*eA*eA*e[5mC]*eA*d[5mC]*dA*dA*dT*dT*dG*d[5mC]*dT*dT*d[5mC]*eT*eT*eG*eG*eA; antisense) [compound 546138]”, the “% inhibition” value under setting [2] stood at 69%.

Consider “547530 (antisense eA*e[5mC]*eA*eA*e[5mC]*dA*d[5mC]*dA*d[5mC]*dA*dG*dT*d[5mC]*dA*dT*eG*eG*eA*eG*eA) [compound 547530]”, for which, under setting [5], the “% inhibition” value worked out at 63%.

For the substance “547299 (antisense eA*eA*eA*e[5mC]*eT*dG*dA*dA*dT*dA*dG*d[5mC]*dA*dA*dA*e[5mC]*eA*e[5mC]*e[5mC]*eT) [compound 547299]”, the “% inhibition” value under setting [2] amounted to 76%.

For “547713 (antisense e[5mC]*eT*e[5mC]*eA*eA*dT*dG*d[5mC]*d[5mC]*dA*d[5mC]*d[5mC]*d[5mC]*dT*dT*eT*e[5mC]*e[5mC]*e[5mC]*e[5mC]) [compound 547713]”, the “% inhibition” value under setting [10] amounted to 37%.

With “547473 (antisense eT*eT*eT*eG*eG*dA*dT*dT*dT*d[5mC]*dA*d[5mC]*d[5mC]*dT*dT*eT*e[5mC]*eT*e[5mC]*e[5mC]) [compound 547473]”, the “% inhibition” value was 5% under setting [7] and 26% under setting [8].

Regarding “546875 (eA*e[5mC]*eT*eA*eT*dA*dA*d[5mC]*dA*dA*dT*dA*dT*d[5mC]*dA*e[5mC]*eT*eG*eT*eA; antisense) [compound 546875]”, the “% inhibition” value under setting [9] is given as 33%.

For “546860 (e[5mC]*eT*eA*eG*eT*dT*dT*d[5mC]*d[5mC]*dT*dA*dT*dA*dA*d[5mC]*eT*eA*eT*eA*eA; antisense) [compound 546860]”, under setting [9], the “% inhibition” value was found to be 36%.

As to “546886 (e[5mC]*eT*eA*eT*eG*dT*d[5mC]*dA*d[5mC]*dT*dG*dT*dA*d[5mC]*d[5mC]*eT*eA*eT*eA*eA; antisense) [compound 546886]”, the “% inhibition” value under setting [6] is listed as 80%.

Regarding “546683 (eT*e[5mC]*e[5mC]*eT*eA*dT*d[5mC]*d[5mC]*dG*dT*dG*dT*dT*d[5mC]*dA*eG*e[5mC]*eT*eG*eT; antisense) [compound 546683]”, under setting [5], the “% inhibition” value was determined as 69%.

As to “547387 (eT*eG*eG*eT*eG*dT*dT*dT*dT*d[5mC]*dT*dT*dG*dA*dG*eG*eA*eG*eT*eA; antisense) [compound 547387]”, the “% inhibition” value under setting [4] is 73%.

In the case of “546346 (antisense eA*eG*eG*eG*eA*d[5mC]*d[5mC]*dA*d[5mC]*d[5mC]*dT*dG*dA*dA*dT*e[5mC]*eT*e[5mC]*e[5mC]*e[5mC]) [compound 546346]”, the “% inhibition” value is, setting by setting: under setting [7], 83%; under setting [8], 70%.

As to “547642 (eT*e[5mC]*eA*e[5mC]*eT*dG*dT*d[5mC]*d[5mC]*dT*dA*dT*dA*dA*d[5mC]*eT*eA*eT*eA*eA; antisense) [compound 547642]”, the “% inhibition” value under setting [6] stood at 72%.

Consider “546946 (eA*e[5mC]*eT*e[5mC]*e[5mC]*d[5mC]*dA*dT*d[5mC]*dT*dA*d[5mC]*dT*d[5mC]*d[5mC]*e[5mC]*e[5mC]*e[5mC]*eA*eT; antisense) [compound 546946]”, for which the “% inhibition” value under setting [10] is 41%.

With “546784 (eG*eG*e[5mC]*eA*eG*dG*dG*dA*dG*dG*dT*dG*dG*dA*dT*eT*eA*eT*eT*e[5mC]; antisense) [compound 546784]”, the “% inhibition” value under setting [3] is recorded as 58%.

In the case of “546907 (eA*eT*eA*eA*e[5mC]*dT*dA*dT*dA*dA*d[5mC]*dA*dG*dT*dA*eT*e[5mC]*eA*e[5mC]*e[5mC]; antisense) [compound 546907]”, the “% inhibition” value under setting [6] is recorded as 37%.

Consider “546397 (eT*eT*eT*eT*eT*dT*dG*dA*dT*d[5mC]*dT*dT*dT*d[5mC]*dA*e[5mC]*e[5mC]*eA*eT*eT; antisense) [compound 546397]”, for which, under setting [5], the “% inhibition” value was 55%.

As for “547659 (eA*e[5mC]*eT*eA*eT*dA*dA*d[5mC]*dA*dG*dT*dA*dT*d[5mC]*dA*e[5mC]*e[5mC]*eG*eT*eA; antisense) [compound 547659]”, the “% inhibition” value under setting [6] amounted to 80%.

Take “547707 (antisense eT*eG*eA*eA*eA*dA*dG*d[5mC]*d[5mC]*dA*d[5mC]*dG*d[5mC]*d[5mC]*d[5mC]*eT*eT*eA*eG*e[5mC]) [compound 547707]”: the “% inhibition” value under setting [10] was 32%.

Turning to “546898 (eA*eA*e[5mC]*eA*eG*dT*dA*dT*d[5mC]*dA*d[5mC]*dT*dG*dT*d[5mC]*e[5mC]*eT*eA*eT*eG; antisense) [compound 546898]”, the “% inhibition” value under setting [6] is 91%.

For “546913 (eG*eT*eA*e[5mC]*e[5mC]*dT*dA*dT*dA*dT*d[5mC]*dA*d[5mC]*dT*dG*eT*eA*eA*e[5mC]*eT; antisense) [compound 546913]”, under setting [10], the “% inhibition” value is reported as 38%.

As to “547658 (e[5mC]*eG*eT*eA*e[5mC]*dT*dA*dG*dT*dT*dT*d[5mC]*d[5mC]*dT*dA*eT*eA*eA*e[5mC]*eT; antisense) [compound 547658]”, the “% inhibition” value under setting [6] stood at 68%.

Regarding “547501 (antisense eA*eT*eT*eG*e[5mC]*d[5mC]*dT*dA*dG*dA*d[5mC]*dT*d[5mC]*dT*dG*eG*eA*e[5mC]*eT*eG) [compound 547501]”, under setting [1], the “% inhibition” value is listed as 55%.

Turning to “547063 (e[5mC]*eG*eT*e[5mC]*eA*dT*dG*d[5mC]*dT*dT*dA*d[5mC]*d[5mC]*dT*dT*eT*e[5mC]*eT*e[5mC]*e[5mC]; antisense) [compound 547063]”, the “% inhibition” value (HepaRG cells, 5,000 nM antisense oligonucleotide, 5-10-5 gapmers, Table 17) is 23%.

As for “547613 (antisense e[5mC]*eT*eA*eT*eA*dT*d[5mC]*dA*d[5mC]*dT*dG*dT*dA*d[5mC]*d[5mC]*eT*eG*eT*eA*eA) [compound 547613]”, the “% inhibition” value under setting [9] was 39%.

Consider “547470 (antisense eT*e[5mC]*eG*eA*eG*dA*dA*dG*d[5mC]*d[5mC]*d[5mC]*d[5mC]*dA*dT*d[5mC]*e[5mC]*eG*eG*eT*eT) [compound 547470]”, for which the “% inhibition” value is recorded as 70% under setting [7] and 68% under setting [8].

The values above are taken from patent US11840686B2, “Modulation of prekallikrein (PKK) expression” (Ionis Pharmaceuticals, Inc., priority 2013, dated 2023).
